This is an account of results in patent publication US5814627A, “3, 5-disubstituted and 3, 4, 5-trisubstituted 2-isoxazolines and isoxazoles, process for their preparation and their use as pharmaceuticals” (Hoechst Aktienegesellschaft, priority 1994, dated 1998).

For experiment [1], the system named is leukotriene B4 synthesis in white blood cells. The experiment in a line: Test 3: LTB4 formation by white blood cells. Type of experiment: cell-based. The following applies: Homo sapiens, read-out: Test 3 residual activity (LTB4 formation), percent of control. As to the method:
TEST 3. LTB4 formation by white blood cells
Isolation of white blood cells:
40 ml of human blood were mixed with 8 ml of 6% dextran solution (dextran, mw: 480,000 in PM16). After one hour at room temperature, the supernatant,which was composed of white blood cells, was removed, diluted with an equal volume of PM16, and centrifuged for 15 minutes at 300×g (1600 rpm). The sediment was next resuspended in approximately 5-6 ml of PM16 and, once the cell count had been determined in a Coulter Counter, adjusted to 10^7 cells/ml.
The test mixture comprised 0.24 ml of cell suspension, 0.03 ml of 20 mM CaCl2 /5 mM MgCl2 and 5 μl of test substance. Following 15 minutes of preincubation at 37° C., the reaction was started with 0.03 ml of A23187/glutathione (100 μg of A23187/ml; 15.4 μg of glutathione/ml). The incubation was terminated after 5 minutes at 37° C. by immediate cooling of the samples down to 0° C. After centrifuging for 2 minutes in an Eppendorff Centrifuge (0° C.), the supernatant was removed and examined chromatographically.
High pressure liquid chromatography (HPLC): the HPLC equipment comprises a Kratos pump (Spectro-flow 400), a cooled automatic BT 7041 sample injector (Biotronik) having a 75 μl sample loop, a Nucleosil C18 column (100*3 mm, 5 μm particles of Chrompack), a UV detector (Kratos) Spectroflow 757 (wavelength: 280 nm, measurement range: 0.1 AUFS, time constant: 0.5 s) and a Spectra Physics integrator (SP 4270). The eluent (725 ml of methanol, 275 ml of water and 0.1 ml of acetic acid) was supplied at a flow rate of 0.7 ml/minute and at a pressure of about 100 bar.
When doing this, the measurement range which has been set can be examined and altered if necessary. It is also vital to measure the test substances at the particular test concentration (e.g.: 10^-5 M) in PM16 before the cell incubation, since the test substances might conceal the LTB4 peak. If this is the case, a lower concentration must be selected.
(§1) The values in the table show the concentration of the test substance which was employed in μM and, besides this, the residual activity measured in percent based on the control, which was set to be 100%. The interleukin is additionally indicated in test 4.

The test system of experiment [2] is TNFα release from mononuclear cells. The experiment in a line: Test 4: cytokine release from LPS-stimulated mononuclear cells, TNFα. It counts as cell-based. The note with it: Homo sapiens, read-out: Test 4 residual activity (TNFα release), percent of control. The protocol:
(§2) Test 4. Stimulation of the cytokine release
(§3) Isolation of mononuclear cells from human blood
(§4) 10 ml of human blood, stabilized with 1 ml of 3.8% sodium citrate solution, were diluted with 10 ml of PM16 (Serva, Heidelberg) and underlaid with 15 ml of Lymphoprep (Dr. Molter GmbH, Heidelberg). The samples were centrifuged, at room temperature for 40 minutes, at 400×g (1600 rpm, Minifuge 2, Heraeus, Osterode). The mononuclear cells are visible as a white ring at the Lymphoprep/plasma interface. This ring was carefully removed with a syringe, diluted with an equal volume of PM16, and centrifuged for 10 minutes at 400×g. The sediment was washed with approximately 10 ml of RPMI1640 (+300 mg/l L-glutamine, Gibco, Eggenstein) (Wallis, 1986). After the cells had been resuspended in approximately 1 ml of RPMI1640 (+300 mg/l L-glutamine+25 mM HEPES+100 μg/ml streptomycin+100 μg/ml penicillin), the cell density was determined using a Coulter Counter JT (Coulter Diagnostics) and adjusted to 5*10^6 /ml. Typically, the cells are composed of 90% lymphocytes and 10% monocytes.
(§5) 230 μl of mononuclear cells were incubated, at 37° C.; 5% CO2 for 20-22 hours (5 hours in the case of IL-6), with 10 μl of test substance (10 μM in DMSO/water, 1/10) and 10 μl of lipopolysaccharide (LPS; 500 μg dissolved in 1 ml of DMSO and diluted 1/10 with water prior to beginning the test; from Salmonella abortus equi, Sigma, Deisenhofen). The samples were cooled down to 0° C. in an ice bath and centrifuged in a Sigma centrifuge (2 minutes; 2000 rpm). Aliquots of the supernatant are measured with an ELISA (Biermann, Bad Nauheim). The abbreviation IL stands for interleukin and TNF for tumor necrosis factor alpha.
as §1

Experiment [3] deals with cyclooxygenase-dependent thrombocyte aggregation. The experiment in a line: Test 5: Cyclooxygenase-dependent thrombocyte aggregation. It counts as cell-based, human. The note with it: Homo sapiens, arachidonic acid as inducer, read-out: Test 5 residual activity (cyclooxygenase-dependent thrombocyte aggregation), percent of control. The procedure, abridged: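 Citrated human platelet-rich plasma was preincubated 10 min at 37 °C with test substance diluted 1:30 in 50 mM Tris-HCl pH 8.0, 90 mM NaCl. Aggregation was triggered with arachidonic acid (5 mg/ml, 20 μl) under 800 rpm stirring in an aggregometer. Values are tested concentration (μM) and residual activity as % of control.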

In experiment [4] the test system is IL-1α release from mononuclear cells. Put plainly: Test 4: cytokine release from LPS-stimulated mononuclear cells, IL-1α. It counts as cell-based. The following applies: Homo sapiens, read-out: Test 4 residual activity (IL-1α release), percent of control. As to the method:
as §2, §3, §4
230 μl of mononuclear cells were incubated, at 37° C.; 5% CO2 for 20-22 hours (5 hours in the case of IL-6), with 10 μl of test substance ([…]) and 10 μl of lipopolysaccharide (LPS; 500 μg dissolved in 1 ml of DMSO and diluted 1/10 with water prior to beginning the test; from Salmonella abortus equi, Sigma, Deisenhofen). The samples were cooled down to 0° C. in an ice bath and centrifuged in a Sigma centrifuge (2 minutes; 2000 rpm). Aliquots of the supernatant are measured with an ELISA (Biermann, Bad Nauheim). The abbreviation IL stands for interleukin and TNF for tumor necrosis factor alpha.
as §1

For experiment [5], the system named is tumor cell line 20-10-5S (hybridoma cell line). Put plainly: Test 8: Inhibition of tumor cell proliferation. It counts as cell-based. The note with it: 48 h + 16 h tritiated thymidine incorporation; 20-10-5S cells. For orientation: Incorporation of labelled thymidine or its analogues reports DNA synthesis.
Experimental: The tumor cell line 20-10-5S (hybridoma cell line, supplied by ATCC (American Type Culture Collection)), which produces an antibody against mouse T cells) was used for determining the antiproliferative property of test substances. The cells were cultured, at 37° C. and 5% C2, under serum-free conditions in CG medium (cell-growth medium=Iscove-ATL (+albumin+transferrin+lipids); from Vitromex, Vilshofen). Only cells which were in the logarithmic phase of growth were used for the test mixture. The test substances were pipetted in various concentrations (from 1 to 50 μM), together with 4×10^3 20-10-5S cells, into round-bottomedmicrotiter plates (total volume with medium, 200 μl). After an incubation time of 48 h (37° C. and 5% CO2), 25 μl of tritiated thymidine (=0.25 μCi/test mixture, specific activity, 23 Ci/mM) were added to the plates. During the subsequent 16 h, the radioactively labeled thymidine was incorporated into the DNA of the growing cells. The samples were filtered off with suction on glass fiber filters and the incorporated radioactivity was measured using a β counter (Beta Plate System 1205 from Wallac).
Experiment [6] concerns IL-1 release from mononuclear cells. The experiment in a line: Test 4: cytokine release from LPS-stimulated mononuclear cells, IL-1. Type of experiment: cell-based. The note with it: Homo sapiens. The protocol: as §2, §3, §4, §5, §1
The next experiment relates to adjuvant/arthritis model. Put plainly: Test 6: antiarthritic effect in the adjuvant/arthritis model. Type of experiment: in vivo, rat (Wistar-Lewis). The following applies: Rattus norvegicus, po, 408 h, 50 mg/kg orally, daily for 17 days; rat; read-out: Test 6 Paw volume (% inhibition).
For experiment [7], the system named is IL-1β release from mononuclear cells. Put plainly: Test 4: cytokine release from LPS-stimulated mononuclear cells, IL-1β. It counts as cell-based. The note with it: Homo sapiens, read-out: Test 4 residual activity (IL-1β release), percent of control. As to the method:
as §2, §3, §4, §5, §1

Experiment [8] relates to PAF-induced asthma attack. Put plainly: Test 7: antiasthmatic effect, PAF-induced asthma attack. The note with it: Cavia porcellus; i.d., 15 minutes before PAF; guinea pig. Type of experiment: in vivo. As to the method:
Test 7: Testing for antiasthmatic effect
Anesthetized guinea pigs, which were cannulated in the jugular vein to allow injection of the PAF, were used for testing for antiasthmatic effect. The test preparations were also administered intravenously (i.v.), 5 min before PAF administration, into the blood stream through the same venous cannula, or else administered intraduodenally (i.d.), 15 minutes before the PAF, through an opening in the duodenum which had been installed and cannulated surgically. The bronchial width was recorded in an overflow pneumonogram before and after administering the preparation. Evaluation: ED50 in mg/kg i.d. as compared with the PAF-induced asthma attack.

For experiment [9], the system named is polymorphonuclear leucocytes (PMNL). Put plainly: Test 1: Release of proteolytic activity from human PMNL. It counts as cell-based. The following applies: Homo sapiens, PMNL, read-out: Test 1 residual activity (release of proteolytic activity), percent of control. The procedure, abridged: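 Human peripheral-blood PMNL (5·10^6 cells/ml in PBS with 7.5 mM glucose) preincubated 20 min at 37° C. with compound, then primed with cytochalasin B (5 μg/ml) and TNF (30 ng/ml), and stimulated with fMLP (10 nmol/l) for 60 min. Released protease in supernatant read with methoxysuccinyl-nitroanilide substrate at 405 nm over 0-60 min, pH 7.5.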

Where [10] appears, read: IL-1, read-out: Test 4 residual activity (IL-1 release), percent of control.

The structures appear in SMILES notation. Where two headings read alike, the source gives them in different places.

`CC(C)(C)c1cc(C2=NOC(c3ccncc3)C2)cc(C(C)(C)C)c1O` (stereo not drawn) [Example 10]: the activity at 1 µM in experiment [1] amounted to 89%. Also, the activity at 10 µM in [1] came to 20%; in [2], 78%. The activity at 100 µM in experiment [3] came to 98%.
By IC50 is commonly meant the concentration that gives 50% inhibition. Take `CC(O)C1CC(c2cc(C(C)(C)C)c(O)c(C(C)(C)C)c2)=NO1` (stereo not drawn) [Example 18]: the activity at 10 µM in experiment [4] was determined as 89%. For the same compound, the activity at 100 µM in experiment [4] (100 μM) amounted to 36%. Also, the IC50 in experiment [5] was 5 to 10 µM.
Consider `CC(C)(C)c1cc(-c2cc(CO)on2)cc(C(C)(C)C)c1O` [Example 24], for which the values for the activity at 10 µM in experiment [6] (setting [10]) and in experiment [3] were 86% and 94%, respectively. Also, the inhibition in vivo at 50 mg/kg in the experiment with adjuvant/arthritis model was 43%. For the same compound, the concentration for half-maximal inhibition (IC50) in [5] was < 5 µM.
Broadly, the ED50 is the dose that gives a 50% effect, or the effect in half of the subjects. A high value points to a need for a large dose. For the compound `CC(C)(C)c1cc(-c2cc(CCO)on2)cc(C(C)(C)C)c1O` [Example 25], in [1], the activity at 1 µM came to 85%. The activity at 10 µM in [1] was 29%; in experiment [4], 62%; in [7] (10 μM), 93%; in experiment [2], 82%; in experiment [3], 86%. For the same compound, in the experiment on adjuvant/arthritis model, the inhibition in vivo at 50 mg/kg was found to be 44%. In addition, in experiment [8], the ED50 fell in the range of 3 to 10 mg/kg. Also, the half-inhibitory concentration (IC50) in experiment [5] is < 5 µM.
In the case of `CC(C)(C)c1cc(-c2cc(CCCO)on2)cc(C(C)(C)C)c1O` [Example 26], the activity at 10 µM was 88% in experiment [2] and 94% in experiment [3]. Besides, in experiment [5], the IC50 was < 5 µM.
Consider `CCOC(=O)C(C)(C)OCc1cc(-c2cc(C(C)(C)C)c(O)c(C(C)(C)C)c2)no1` [Example 35], for which, in experiment [4], the activity at 10 µM was determined as 84%. In addition, the activity at 100 µM in experiment [3] was found to be 94%.
Regarding `CC(C)(OCc1cc(-c2cc(C(C)(C)C)c(O)c(C(C)(C)C)c2)no1)C(=O)Nc1nnn[nH]1` [Example 38, 2-(3-(4-Hydroxy-3,5-di-tert-butylphenyl)isoxazol-5-ylmethoxy)-N-(1H-tetrazol-5-yl)isobutyramide], the values for the activity at 1 µM in [4] and in [7] were 89% and 85%, respectively. Besides, the activity at 100 µM in [3] was determined as 90%.
`CC(C)(C)c1cc(-c2cc(CCC(=O)Nc3nnn[nH]3)on2)cc(C(C)(C)C)c1O` [Example 46, 3-(3-(4-Hydroxy-3,5-di-tert-butylphenyl)isoxazol-5-yl)-N-(1H-tetrazol-5-yl)propionamide]: the activity at 1 µM in experiment [4] was found to be 77%; in [7], 85%. In addition, the activity at 10 µM in experiment [2] is 79%. Besides, in experiment [3], the activity at 100 µM amounted to 90%.
In the case of `CC(C)(C)c1cc(-c2cc(/C=C/C(=O)O)on2)cc(C(C)(C)C)c1O` [Example 47, 3-(4-Hydroxy-3,5-di-tert-butylphenyl)isoxazol-5-ylacrylic acid], the activity at 1 µM in experiment [9] (1 μM) was 85%; in [4], 89%. For the same compound, the activity at 10 µM in experiment [9] is 38%; in experiment [4], 72%; in experiment [2], 64%. The activity at 100 µM in [9] came to 17%. In [8], this compound showed a median effective dose (ED50) of 10 to 50 mg/kg. The half-inhibitory concentration (IC50) in experiment [5] lay in the range of 5 to 10 µM.
Turning to `CC(C)(C)c1cc(C2CC(c3nccs3)=NO2)cc(C(C)(C)C)c1O` (stereo not drawn) [Example 61, 3-(2-Thiazolyl)-5-(4-hydroxy-3,5-di-tert-butylphenyl)-2-isoxazoline], the activity at 100 µM turned out to be 80% in experiment [9] and 94% in [3]. Further, the activity at 10 µM in experiment [1] worked out at 3%; in [2] it was 68%. Besides, in experiment [4], the activity at 1 µM is 94%.
As to `CC(C)(C)c1cc(C2CC(CCC(=O)Nc3nnn[nH]3)=NO2)cc(C(C)(C)C)c1O` (stereo not drawn) [Example 64, 5-(4-Hydroxy-3,5-di-tert-butyl)phenyl-2-isoxazoline-3-propionic acid-N-(1H-tetrazol-5-yl)amide], the activity at 10 µM in experiment [9] is 96%; in [6] (IL-1 (second entry), read-out: Test 4 residual activity (IL-1 release, second IL-1 entry of Ex. 64), percent of control), 82%; in [6] (setting [10]) it was 68%. Further, the activity at 100 µM is 72% in experiment [9] and 97% in experiment [3]. Further, the activity at 1 µM in [6] (IL-1, 1 μM, read-out: Test 4 residual activity (IL-1 release), percent of control) was 85%.
